Assay results published in BigSolDB 2.1.

## CC(CCc1ccccc1)NCC(O)c1ccc(O)c(C(N)=O)c1.Cl (stereo unspecified)
In ethanol, 288.15 K
  solubility (mole fraction): 0.00124
In ethanol, 293.15 K
  solubility (mole fraction): 0.00145
In ethanol, 298.15 K
  solubility (mole fraction): 0.0017
In ethanol, 303.15 K
  solubility (mole fraction): 0.00198
In ethanol, 308.15 K
  solubility (mole fraction): 0.00222
In ethanol, 313.15 K
  solubility (mole fraction): 0.00253
In ethanol, 318.15 K
  solubility (mole fraction): 0.00288
In ethanol, 323.15 K
  solubility (mole fraction): 0.0035
In ethanol, 328.15 K
  solubility (mole fraction): 0.00395
In ethyl acetate, 288.15 K
  solubility (mole fraction): 0.000116
In ethyl acetate, 293.15 K
  solubility (mole fraction): 0.000163
In ethyl acetate, 298.15 K
  solubility (mole fraction): 0.000237
In ethyl acetate, 303.15 K
  solubility (mole fraction): 0.000302
In ethyl acetate, 308.15 K
  solubility (mole fraction): 0.000406
In ethyl acetate, 313.15 K
  solubility (mole fraction): 0.000531
In ethyl acetate, 318.15 K
  solubility (mole fraction): 0.000689
In ethyl acetate, 323.15 K
  solubility (mole fraction): 0.000823
In ethyl acetate, 328.15 K
  solubility (mole fraction): 0.00109
In isobutanol, 288.15 K
  solubility (mole fraction): 0.000136
In isobutanol, 293.15 K
  solubility (mole fraction): 0.000184
In isobutanol, 298.15 K
  solubility (mole fraction): 0.000257
In isobutanol, 303.15 K
  solubility (mole fraction): 0.000326
In isobutanol, 308.15 K
  solubility (mole fraction): 0.000429
In isobutanol, 313.15 K
  solubility (mole fraction): 0.00056
In isobutanol, 318.15 K
  solubility (mole fraction): 0.000729
In isobutanol, 323.15 K
  solubility (mole fraction): 0.000981
In isobutanol, 328.15 K
  solubility (mole fraction): 0.00126
In isopropanol, 288.15 K
  solubility (mole fraction): 0.00011
In isopropanol, 293.15 K
  solubility (mole fraction): 0.000164
In isopropanol, 298.15 K
  solubility (mole fraction): 0.000253
In isopropanol, 303.15 K
  solubility (mole fraction): 0.000355
In isopropanol, 308.15 K
  solubility (mole fraction): 0.000492
In isopropanol, 313.15 K
  solubility (mole fraction): 0.000675
In isopropanol, 318.15 K
  solubility (mole fraction): 0.000985
In isopropanol, 323.15 K
  solubility (mole fraction): 0.0014
In isopropanol, 328.15 K
  solubility (mole fraction): 0.00194
In methanol, 288.15 K
  solubility (mole fraction): 0.00883
In methanol, 293.15 K
  solubility (mole fraction): 0.0101
In methanol, 298.15 K
  solubility (mole fraction): 0.0114
In methanol, 303.15 K
  solubility (mole fraction): 0.013
In methanol, 308.15 K
  solubility (mole fraction): 0.0144
In methanol, 313.15 K
  solubility (mole fraction): 0.0162
In methanol, 318.15 K
  solubility (mole fraction): 0.0182
In methanol, 323.15 K
  solubility (mole fraction): 0.0204
In methanol, 328.15 K
  solubility (mole fraction): 0.0228
In n-butanol, 288.15 K
  solubility (mole fraction): 0.000385
In n-butanol, 293.15 K
  solubility (mole fraction): 0.000467
In n-butanol, 298.15 K
  solubility (mole fraction): 0.000565
In n-butanol, 303.15 K
  solubility (mole fraction): 0.000675
In n-butanol, 308.15 K
  solubility (mole fraction): 0.000808
In n-butanol, 313.15 K
  solubility (mole fraction): 0.000967
In n-butanol, 318.15 K
  solubility (mole fraction): 0.00116
In n-butanol, 323.15 K
  solubility (mole fraction): 0.00136
In n-butanol, 328.15 K
  solubility (mole fraction): 0.00163
In n-propanol, 288.15 K
  solubility (mole fraction): 0.000478
In n-propanol, 293.15 K
  solubility (mole fraction): 0.00058
In n-propanol, 298.15 K
  solubility (mole fraction): 0.00071
In n-propanol, 303.15 K
  solubility (mole fraction): 0.000841
In n-propanol, 308.15 K
  solubility (mole fraction): 0.001
In n-propanol, 313.15 K
  solubility (mole fraction): 0.00121
In n-propanol, 318.15 K
  solubility (mole fraction): 0.00144
In n-propanol, 323.15 K
  solubility (mole fraction): 0.00173
In n-propanol, 328.15 K
  solubility (mole fraction): 0.00194
In sec-butanol, 288.15 K
  solubility (mole fraction): 0.000167
In sec-butanol, 293.15 K
  solubility (mole fraction): 0.000211
In sec-butanol, 298.15 K
  solubility (mole fraction): 0.000278
In sec-butanol, 303.15 K
  solubility (mole fraction): 0.000336
In sec-butanol, 308.15 K
  solubility (mole fraction): 0.000411
In sec-butanol, 313.15 K
  solubility (mole fraction): 0.000515
In sec-butanol, 318.15 K
  solubility (mole fraction): 0.000643
In sec-butanol, 323.15 K
  solubility (mole fraction): 0.000804
In sec-butanol, 328.15 K
  solubility (mole fraction): 0.000983
In water, 288.15 K
  solubility (mole fraction): 0.000711
In water, 293.15 K
  solubility (mole fraction): 0.000898
In water, 298.15 K
  solubility (mole fraction): 0.00118
In water, 303.15 K
  solubility (mole fraction): 0.00145
In water, 308.15 K
  solubility (mole fraction): 0.00172
In water, 313.15 K
  solubility (mole fraction): 0.00212
In water, 318.15 K
  solubility (mole fraction): 0.00266
In water, 323.15 K
  solubility (mole fraction): 0.00337
In water, 328.15 K
  solubility (mole fraction): 0.00409
